Measurements taken from paper PMC8580996, “2-Oxoglutarate derivatives can selectively enhance or inhibit the activity of human oxygenases” (Nature Communications, 2021).
Where “and” joins values, the source holds several entries; their conditions need not be identical. Identical values can stand only once. Entries after “also recorded” stand apart in the source; their conditions may differ.

Columns and labels:
FIH [1] = molecular target: T1, FIH (Homo sapiens, UniProt Q9NWT6); assay: SPE-MS FIH turnover (cosubstrate) assay in the absence of 2OG; format: biochemical; details: 330 μM 2OG or 2OG derivative, no 2OG, t = 15 min
Protocol: The ability of 35 synthetic C3/C4-substituted 2OG derivatives, which were prepared via a reported procedure (Supplementary Fig. 1 and Supplementary Methods)[21], to sustain catalysis by purified recombinant FIH in the absence of 2OG was examined using an assay directly monitoring substrate depletion and product formation (i.e., a +16 Da mass shift) by solid-phase extraction (SPE) coupled to mass spectrometry (SPE-MS)[44],[45]. […] (i.e. CA1–20)[47], were used as FIH substrates to test for potential substrate-dependent differences in terms of cosubstrate analog selectivity.
Assay samples were aspirated under vacuum for 0.6 s and loaded onto a C4 SPE cartridge. After loading, the C4 SPE cartridge was washed with 0.1%v/v aqueous formic acid to remove non-volatile buffer salts (5.5 s, 1.5 mL/min). […] The mass spectrometer was operated using the MassHunter Workstation B.08.00 software (Agilent), the mass spectrometer parameters were: capillary voltage (4000 V), nozzle voltage (1000 V), fragmentor voltage (365 V), gas temperature (280 °C), gas flow (13 L/min), sheath gas temperature (350 °C), sheath gas flow (12 L/min). […] Data were exported into Microsoft Excel and used to calculate the % conversion of the hydroxylation reaction using the equation: % conversion = 100 × (integral product peptide)/(integral substrate peptide+integral product peptide). […] Z′-factors were calculated according to the cited literature using Microsoft Excel (Supplementary Fig. 26)[83].

AspH [2] = molecular target: T2, AspH (Homo sapiens, UniProt Q12797); design: method as in PMID 34163896; details: hFX-CP101–119 substrate, 330 μM 2OG or 2OG derivative, t = 15 min; cited from earlier work
T2 construct: the tetratricopeptide repeat domain (His6-AspH315-758), was produced and purified as previously reported; made in house
T2 sequence (Q12797 315-758): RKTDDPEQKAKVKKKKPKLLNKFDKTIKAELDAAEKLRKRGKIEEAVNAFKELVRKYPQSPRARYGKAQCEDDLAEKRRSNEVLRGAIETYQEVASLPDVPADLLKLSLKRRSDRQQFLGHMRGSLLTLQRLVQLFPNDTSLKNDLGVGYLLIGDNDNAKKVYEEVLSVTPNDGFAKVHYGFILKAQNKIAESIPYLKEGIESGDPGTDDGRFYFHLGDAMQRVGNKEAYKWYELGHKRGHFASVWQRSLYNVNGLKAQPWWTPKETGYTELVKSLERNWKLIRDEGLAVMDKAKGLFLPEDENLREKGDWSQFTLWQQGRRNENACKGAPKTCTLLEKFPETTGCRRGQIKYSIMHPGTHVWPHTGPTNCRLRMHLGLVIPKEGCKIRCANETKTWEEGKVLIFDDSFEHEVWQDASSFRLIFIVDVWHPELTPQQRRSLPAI

FIH [3] = molecular target: T1, FIH; assay: SPE-MS FIH inhibition assay; format: biochemical; details: for IC50 FIH: 5.0 μM HIF-1α788-822, 10 μM 2OG, mean of two runs; on IC50 FIH: 0.15 µM FIH
Protocol: FIH inhibition assays were performed as described, using cosubstrate/cofactor stock solutions (L-ascorbic acid, LAA: 50 mM in MQ-grade water; 2-oxoglutarate, 2OG: 10 mM in MQ-grade water; ammonium iron(II) sulfate hexahydrate, FAS, (NH4)2Fe(SO4)2·6H2O: 400 mM in 20 mM HCl diluted to 1 mM in MQ-grade water), which were freshly prepared from commercially-sourced solids (Sigma Aldrich).
Dimethyl sulfoxide (DMSO) solutions of the 2OG derivatives were dry dispensed across 384-well polypropylene assay plates (Greiner) in an approximately threefold and 11-point dilution series (100 μM top concentration; the final DMSO assay concentration was kept constant at 0.5%v/v) using an ECHO 550 acoustic dispenser (Labcyte). […] Each reaction was performed in technical duplicates in adjacent wells of the assay plates; additionally, assays were performed in two independent duplicates on different days using different inhibitor solutions.
The Enzyme Mixture (25 μL/well), containing 0.3 μM His6-FIH in buffer (50 mM Tris, 50 mM NaCl, pH 7.5), was dispensed across the inhibitor-containing 384-well assay plates with a multidrop dispenser (ThermoFischer Scientific) at 20 °C under an ambient atmosphere. The plates were subsequently centrifuged (1000 rpm, 15 s) and incubated for 15 min at 20 °C. The Substrate Mixture (25 μL/well), containing 10.0 μM HIF-1α788–822[37] substrate, 200 μM LAA, 20.0 μM 2OG, and 20.0 μM FAS in buffer (50 mM Tris, 50 mM NaCl, pH 7.5), was added using the multidrop dispenser. The plates were centrifuged (1000 rpm, 15 s) and after incubating for 15 min, the enzyme reaction was stopped by the addition of 10%v/v aqueous formic acid (5 μL/well). The plates were then centrifuged (1000 rpm, 30 s) and analyzed by MS.
MS-analyses were performed using a RapidFire RF 365 high-throughput sampling robot (Agilent) attached to an iFunnel Agilent 6550 accurate-mass quadrupole time-of-flight mass spectrometer operated in the positive ionization mode. Assay samples were aspirated under vacuum for 0.6 s and loaded onto a C4 SPE cartridge. After loading, the C4 SPE cartridge was washed with 0.1%v/v aqueous formic acid to remove non-volatile buffer salts (5.5 s, 1.5 mL/min). […] The mass spectrometer was operated using the MassHunter Workstation B.08.00 software (Agilent), the mass spectrometer parameters were: capillary voltage (4000 V), nozzle voltage (1000 V), fragmentor voltage (365 V), gas temperature (280 °C), gas flow (13 L/min), sheath gas temperature (350 °C), sheath gas flow (12 L/min). The m/z + 2 (for CA1–20) or +3 (for HIF-1α788–822) charge states of the peptide (substrate) and the hydroxylated peptide (product) were used to extract ion chromatogram data, peak areas were integrated using RapidFire Integrator 4.3.0 (Agilent). Data were exported into Microsoft Excel and used to calculate the % conversion of the hydroxylation reaction using the equation: % conversion = 100 × (integral product peptide)/(integral substrate peptide+integral product peptide). […] Z′-factors were calculated according to the cited literature using Microsoft Excel (Supplementary Fig. 26)[83].
SPE-MS FIH inhibition assays were performed as described in the Methods section.
Tris, 50 mM NaCl, pH 7.5, 20 °C). […]

AspH [4] = molecular target: T2, AspH; details: 0.05 μM AspH, 1.0 μM hFX-CP101-119, 3.0 μM 2OG, ref 21 (supplementary ref 1); cited from earlier work
AspH [5] = molecular target: T2, AspH; assay: Competition assay in a single reaction vessel, AspH-catalyzed hydroxylation (SPE-MS); format: biochemical
Protocol: (§1) Mean of three independent runs (n = 3; mean ± SD). […] Cosubstrates: a 20 μM 2OG; b 20 μM 2OG; c 20 μM 1; d 20 μM 12; e 20 μM 12 and 100 μM 2OG; f 100 μM 14. Source data are provided as a Source Data file.
(§2) Mean of three independent runs (n = 3; mean ± SD). […] Source data are provided as a Source Data file.
(§3) Peptide turnover was monitored by SPE-MS using the same instrument configuration (with the exception that the peptides were eluted from the SPE cartridge with 0.1%v/v aqueous formic acid in 80/20 v/v acetonitrile/water) as described above.
(§4) FIH and AspH-catalyzed peptide hydroxylations were analyzed simultaneously using SPE-MS as described in the
(§5) Methods section; competition experiments were performed in the same reaction vessel using equimolar 2OG
(§6) oxygenase and substrate concentrations. […]
(§7) Source data are provided as a Source Data file.
(§8) FIH and AspH-catalyzed peptide hydroxylations were analyzed simultaneously using SPE-
(§9) MS as described in the Methods section; competition experiments were performed in the same reaction vessel
(§10) using equimolar 2OG oxygenase and substrate concentrations. […]
(§11) 2OG, 100 μM 14. Source data are provided as a Source Data file.

FIH [6] = molecular target: T1, FIH; assay: Competition assay in a single reaction vessel, FIH-catalyzed hydroxylation (SPE-MS); format: biochemical
Protocol: as §1, §2, §3, §4, §5, §6, §7, §8, §9, §10, §11

[7] = Fig 4d, 0.5 mM 13 and 0.5 mM 2OG, after 4 min
[8] = source data of Table 3, single independent replicates

T1 sequence (Q9NWT6 whole entry): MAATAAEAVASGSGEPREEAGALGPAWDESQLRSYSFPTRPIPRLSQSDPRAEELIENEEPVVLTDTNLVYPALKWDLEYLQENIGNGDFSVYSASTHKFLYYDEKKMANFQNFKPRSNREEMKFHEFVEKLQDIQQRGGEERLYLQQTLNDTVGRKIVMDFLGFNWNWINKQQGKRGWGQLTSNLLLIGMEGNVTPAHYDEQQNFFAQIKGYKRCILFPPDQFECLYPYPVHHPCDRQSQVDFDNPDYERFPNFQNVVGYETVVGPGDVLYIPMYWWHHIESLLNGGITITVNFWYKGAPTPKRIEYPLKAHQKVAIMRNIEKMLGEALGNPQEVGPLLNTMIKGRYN

O=C(O)C(=O)C12CCC(C(=O)O)(CC1)CC2 [compound 25]
FIH activity, %-substrate conversion (FIH [1]; CA1–20 substrate): ^c<1% ^d<1% | FIH activity, %-substrate conversion (FIH [1]; HIF-1α788–822 substrate): ^c<1% ^d<1% | AspH activity, %-substrate conversion (AspH [2]): ~8% | IC50 FIH (FIH [3]): inactive | IC50 AspH (AspH [4]): inactive

CCC(CC(=O)O)C(=O)C(=O)O (stereo not drawn) [compound 2, 3-ethyl 2OG]
FIH activity, %-substrate conversion (FIH [1]; CA1–20 substrate): ~20% | FIH activity, %-substrate conversion (FIH [1]; HIF-1α788–822 substrate): ~2% | AspH activity, %-substrate conversion (AspH [2]): <1% | IC50 (FIH [3]; source data of Table 3, single independent replicates, read-out: FIH IC50, independent replicate): 4540 nM and 4520 nM | IC50 (AspH [4]): ~1200 nM

O=C(O)C(=O)c1ccc(C(=O)O)c(Br)c1 [compound 32]
FIH activity, %-substrate conversion (FIH [1]; CA1–20 substrate): ^c<1% ^d<1% | FIH activity, %-substrate conversion (FIH [1]; HIF-1α788–822 substrate): ^c<1% ^d<1% | AspH activity, %-substrate conversion (AspH [2]): ~8% | IC50 FIH (FIH [3]): inactive | IC50 AspH (AspH [4]): inactive

CC(C)(CC(=O)C(=O)O)C(=O)O [compound 13, 4,4-dimethyl-2OG]
AspH-catalyzed substrate hydroxylation (AspH [5]; Fig 4f, fourfold excess of 13 over 0.5 mM 2OG, after 4 min): < 20% | AspH conversion (AspH [5]; [7]): ~ 60% | FIH activity, %-substrate conversion (FIH [1]; CA1–20 substrate): ~10% | FIH activity, %-substrate conversion (FIH [1]; HIF-1α788–822 substrate): < 1% | effect on FIH activity (FIH [6]; Fig 4, 13 from 0 to 2.0 mM, 0.5 mM 2OG): no effect on FIH activity | FIH conversion (FIH [6]; [7]): ~ 80% | AspH activity, %-substrate conversion (AspH [2]): <1% | FIH IC50, independent replicate (FIH [3]; [8]): not inhibiting | IC50 (AspH [4]): ~300 nM

O=C(O)C(=O)c1ccc(C(=O)O)c(F)c1 [compound 30]
FIH activity, %-substrate conversion (FIH [1]; CA1–20 substrate): ^c<1% ^d<1% | FIH activity, %-substrate conversion (FIH [1]; HIF-1α788–822 substrate): ^c<1% ^d<1% | AspH activity, %-substrate conversion (AspH [2]): ~8% | IC50 FIH (FIH [3]): inactive | IC50 AspH (AspH [4]): inactive

O=C(O)C(=O)c1cccc(C(=O)O)c1 [compound 27]
FIH activity, %-substrate conversion (FIH [1]; CA1–20 substrate): ^c<1% ^d<1% | FIH activity, %-substrate conversion (FIH [1]; HIF-1α788–822 substrate): ^c<1% ^d<1% | AspH activity, %-substrate conversion (AspH [2]): <1% | IC50 FIH (FIH [3]): inactive | IC50 AspH (AspH [4]): inactive

CC(C)CC(CC(=O)C(=O)O)C(=O)O (stereo not drawn) [compound 16, 4-isobutyl-2OG]
FIH activity, %-substrate conversion (FIH [1]; CA1–20 substrate): ~3% | FIH activity, %-substrate conversion (FIH [1]; HIF-1α788–822 substrate): < 1% | AspH activity, %-substrate conversion (AspH [2]): <1% | selectivity of AspH over FIH inhibition as judged by IC50-values (FIH [3]): ~ 70 fold | IC50 (AspH [4]): ~500 nM

O=C(O)C(=O)c1cscc1C(=O)O [compound 34]
FIH activity, %-substrate conversion (FIH [1]; CA1–20 substrate): ^c<1% ^d<1% | FIH activity, %-substrate conversion (FIH [1]; HIF-1α788–822 substrate): ^c<1% ^d<1% | AspH activity, %-substrate conversion (AspH [2]): <1% | IC50 FIH (FIH [3]): inactive | IC50 AspH (AspH [4]): inactive

O=C(O)C(=O)c1ccc(C(=O)O)cc1 [compound 28, 4-Carboxyphenylglyoxylic acid]
AspH conversion (AspH [5]; Supplementary Fig 8b, 100 μM 28, 0 μM 2OG, after 35 min): ~ 40% | FIH activity, %-substrate conversion (FIH [1]; CA1–20 substrate): ~10% | FIH activity, %-substrate conversion (FIH [1]; HIF-1α788–822 substrate): < 1% | FIH cosubstrate activity (FIH [6]; Supplementary Fig 8b, 100 μM 28, 0 μM 2OG): no cosubstrate activity | AspH activity, %-substrate conversion (AspH [2]): ~80% | FIH IC50, independent replicate (FIH [3]; [8]): not inhibiting | IC50 AspH (AspH [4]): inactive; also recorded: neither inhibits AspH nor FIH catalysis
